Holding throughout (format): cell-based
The subject of one experiment is NCI-N87. Briefly: Inhibition of proliferation of NCI-N87 cells by test compounds (CellTiter-Glo, 72 h). Conditions: NCI-N87, 72 h incubation. The procedure:
3: Test method (1) Cell plating: first, tumor cells NCI-N87 were cultured using a corresponding culture medium, trypsinized, centrifuged, resuspended for counting, adjusted to an appropriate concentration, and then plated on a 384-well plate. (2) Co-incubation of the compounds and tumor cells: after the cells adhered to the wall, 100 nL of a diluted bioactive substance (test compound) was added to the cell culture plate using ECHO, the final concentration of DMSO in wells of the cell plate was 0.33%, and the incubation was performed in an incubator at 37°C with […] for 72 h. (3) After the incubation was complete, 30 µL of a CTG reagent (CelltiterGlo kit) was added to each well. The culture was oscillated on a fast oscillator for 2 min, centrifuged at 1,000 rpm for 1 min, and kept away from light at room temperature for 30 min. The chemiluminescence signal value was read using an Envision instrument. (4) Cell viability detection: IC50 was calculated using GraphPad Prism 8 software, and the IC50 of the compounds was obtained using the following nonlinear fitting formula (see Table 3) : 11. Y=Bottom+(Top-Bottom)/(1+10^((LogIC50-X)*HillSlope)) 12. […] Table 3 Antiproliferative activity of test compounds on cells NCI-N87

A further experiment concerns SK-BR-3. Briefly: Inhibition of proliferation of SK-BR-3 cells by compounds (CellTiter-Glo, 72 h). Conditions: SK-BR-3, 72 h incubation. The procedure: 3: Test method (1) Cell plating: first, tumor cells SK-BR-3 were cultured using a corresponding culture medium, trypsinized, centrifuged, resuspended for counting, adjusted to an appropriate concentration, and then plated on a 384-well plate. (2) Co-incubation of the compounds and tumor cells: after the cells adhered to the wall, 100 nL of a diluted bioactive substance (test compound) was added to the cell culture plate using ECHO, the final concentration of DMSO in wells of the cell plate was 0.33%, and the incubation was performed in an incubator at 37°C with 5% CO2 for 72 h. (3) After the incubation was complete, 30 µL of a CTG reagent (CelltiterGlo kit) was added to each well. The culture was oscillated on a fast oscillator for 2 min, centrifuged at 1,000 rpm for 1 min, and kept away from light at room temperature for 30 min. The chemiluminescence signal value was read using an Envision instrument. (4) Cell viability detection: IC50 was calculated using GraphPad Prism 8 software, and the IC50 of the compounds was obtained using the following nonlinear fitting formula (see Table 1) : 1. Y=Bottom+(Top-Bottom)/(1+10^((LogIC50-X)*HillSlope)) 2. […] Table 1 Antiproliferative activity of test compounds on SK-BR-3
For orientation: ATP-based viability assays read luminescence as a measure of living cells.

Another experiment concerns MDA-MB-468. The experiment is described as follows: Inhibition of proliferation of MDA-MB-468 cells by test compounds (CellTiter-Glo, 72 h). Conditions: MDA-MB-468, 72 h incubation. The procedure: 3: Test method • (1) Cell plating: first, tumor cells MDA-MB-468 were cultured using a corresponding culture medium, trypsinized, centrifuged, resuspended for counting, adjusted to an appropriate concentration, and then plated on a 384-well plate. • (2) Co-incubation of the compounds and tumor cells: after the cells adhered to the wall, 100 nL of a diluted bioactive substance (test compound) was added to the cell culture plate using ECHO, the final concentration of DMSO in wells of the cell plate was 0.33%, and the incubation was performed in an incubator at 37°C with […] for 72 h. • (3) After the incubation was complete, 30 µL of a CTG reagent (CelltiterGlo kit) was added to each well. The culture was oscillated on a fast oscillator for 2 min, centrifuged at 1,000 rpm for 1 min, and kept away from light at room temperature for 30 min. The chemiluminescence signal value was read using an Envision instrument. • (4) Cell viability detection: IC50 was calculated using GraphPad Prism 8 software, and the IC50 of the compounds was obtained using the following nonlinear fitting formula (see Table 2): • 6. Y=Bottom+(Top-Bottom)/(1+10^((LogIC50-X)*HillSlope)) • 7. […] Table 2 Antiproliferative activity of test compounds on MDA-MB-468

As usually defined, the IC50 is the concentration that inhibits the measured activity by half. Lower therefore signals greater potency.

For `CC[C@@]1(O)C(=O)OCc2c1cc1n(c2=O)Cc2c-1nc1cc(F)c(C3CC3)c3c1c2C(NC(=O)C[C@@H](C)O)CC3` (single isomer, unassigned) [17-1], the IC50 in the experiment with NCI-N87 (Homo sapiens, NCI-N87, 72 h) is 3.6 nM; in the experiment on SK-BR-3 (Homo sapiens, SK-BR-3, 72 h), 4.6 nM; with MDA-MB-468 (Homo sapiens, MDA-MB-468, 72 h), 5.8 nM.

With `CC[C@@]1(O)C(=O)OCc2c1cc1n(c2=O)Cc2c-1nc1cc(F)c(C3CC3)c3c1c2C(NC(=O)[C@H]1C[C@@H](O)C1)CC3` (single isomer, unassigned) [18-2], the IC50 in the experiment on NCI-N87 (Homo sapiens, NCI-N87, 72 h) is 16.5 nM; in the experiment with SK-BR-3 (Homo sapiens, SK-BR-3, 72 h), 9.6 nM; with MDA-MB-468 (Homo sapiens, MDA-MB-468, 72 h), 12 nM.

On to `CC[C@@]1(O)C(=O)OCc2c1cc1n(c2=O)Cc2c-1nc1cc(F)c(C3CC3)c3c1c2C(NC(=O)C[C@@H](C)O)CCC3` (single isomer, unassigned) [19-1], for which the IC50 in the experiment on NCI-N87 (Homo sapiens, NCI-N87, 72 h) is 7.4 nM; with SK-BR-3 (Homo sapiens, SK-BR-3, 72 h) it was 8.3 nM; in the experiment on MDA-MB-468 (Homo sapiens, MDA-MB-468, 72 h) it was 7.1 nM.

For the molecule `CC[C@@]1(O)C(=O)OCc2c1cc1n(c2=O)Cc2c-1nc1cc(F)c(C3CC3)c3c1c2C(NC(=O)C[C@@H](C)O)CCC3` (single isomer, unassigned) [19-2], the IC50 in the experiment on NCI-N87 stood at 7.4 nM; with SK-BR-3, 7.6 nM; with MDA-MB-468, 6.9 nM.

In the case of `CC[C@@]1(O)C(=O)OCc2c1cc1n(c2=O)Cc2c-1nc1cc(F)c(C3CC3)c3c1c2C(NC(=O)[C@H]1C[C@@H](O)C1)CCC3` (single isomer, unassigned) [20-1], the IC50 with NCI-N87 (Homo sapiens, NCI-N87, 72 h) amounted to 26 nM; in the experiment with SK-BR-3 (Homo sapiens, SK-BR-3, 72 h), 21 nM; in the experiment with MDA-MB-468 (Homo sapiens, MDA-MB-468, 72 h), 15.6 nM.

As for `CC[C@@]1(O)C(=O)OCc2c1cc1n(c2=O)Cc2c-1nc1cc(F)c(C3CC3)c3c1c2C(NC(=O)[C@H]1C[C@@H](O)C1)CCC3` (single isomer, unassigned) [20-2], the IC50 in the experiment with NCI-N87 came to 28 nM; in the experiment on SK-BR-3 it was 25 nM; in the experiment with MDA-MB-468 it was 19.5 nM.

Turning to `CC[C@@]1(O)C(=O)OCc2c1cc1n(c2=O)Cc2c-1nc1cc(F)c(C)c3c1c2C(NC(=O)[C@H]1C[C@@H](O)C1)CCO3` (single isomer, unassigned) [25-1], the IC50 in the experiment with NCI-N87 amounted to 110 nM; with SK-BR-3 it was 80 nM; with MDA-MB-468 it was 69 nM.

Consider `CC[C@@]1(O)C(=O)OCc2c1cc1n(c2=O)Cc2c-1nc1cc(F)c(C)c3c1c2C(NC(=O)[C@H]1C[C@@H](O)C1)CCO3` (single isomer, unassigned) [25-2], for which the IC50 is 40 nM in the experiment on NCI-N87, 19 nM in the experiment on SK-BR-3 and 18 nM in the experiment with MDA-MB-468.

For the molecule `CC[C@@]1(O)C(=O)OCc2c1cc1n(c2=O)Cc2c-1nc1cc(F)c(Br)c3c1c2C(NC(=O)C[C@@H](C)O)CC3` (stereo partly drawn) [3-1, (R)-N-((1S,9S)-4-bromo-9-ethyl-5-fluoro-9-hydroxy-10,13-dioxo-2,3,9,10,13,15-hexahydro-1H,12H-benzo[de]pyrano[3',4',6,7]indolizino[1,2-b]quinolin-1-yl)-3-hydroxybutanamide], the IC50 in the experiment on NCI-N87 came to 16 nM; with SK-BR-3, 13 nM; in the experiment on MDA-MB-468, 7.5 nM.

For `CC[C@@]1(O)C(=O)OCc2c1cc1n(c2=O)Cc2c-1nc1cc(F)c(Br)c3c1c2C(NC(=O)C[C@@H](C)O)CC3` (stereo partly drawn) [3-2, (R)-N-((1R,9S)-4-bromo-9-ethyl-5-fluoro-9-hydroxy-10,13-dioxo-2,3,9,10,13,15-hexahydro-1H,12H-benzo[de]pyrano[3',4',6,7]indolizino[1,2-b]quinolin-1-yl)-3-hydroxybutanamide], the IC50 with NCI-N87 is 16 nM; in the experiment on SK-BR-3 it was 15 nM; in the experiment with MDA-MB-468 it was 12 nM.

`CC[C@@]1(O)C(=O)OCc2c1cc1n(c2=O)Cc2c-1nc1cc(F)cc3c1c2C(NC(=O)C[C@@H](C)O)CC3` (stereo partly drawn) [4-1, (R)-N-((1S,9S)-9-ethyl-5-fluoro-9-hydroxy-10,13-dioxo-2,3,9,10,13,15-hexahydro-1H,12H-benzo[de]pyrano[3',4',6,7]indolizino[1,2-b]quinolin-1-yl)-3-hydroxybutanamide]: the values for the IC50 in the experiment on SK-BR-3 and in the experiment with MDA-MB-468 were 61 nM and 34 nM, respectively.

As to `CC[C@@]1(O)C(=O)OCc2c1cc1n(c2=O)Cc2c-1nc1cc(F)cc3c1c2C(NC(=O)C[C@@H](C)O)CC3` (stereo partly drawn) [4-2, (R)-N-((1R,9S)-9-ethyl-5-fluoro-9-hydroxy-10,13-dioxo-2,3,9,10,13,15-hexahydro-1H,12H-benzo[de]pyrano[3',4',6,7]indolizino[1,2-b]quinolin-1-yl)-3-hydroxybutanamide], the IC50 in the experiment with NCI-N87 is 22 nM; in the experiment on SK-BR-3 it was 14 nM; in the experiment with MDA-MB-468, 13 nM.

`CC[C@@]1(O)C(=O)OCc2c1cc1n(c2=O)Cc2c-1nc1cc(F)c(OC(F)F)c3c1c2C(NC(=O)C[C@@H](C)O)CC3` (stereo partly drawn) [5-1, (R)-N-((1S,9S)-4-(difluoromethoxy)-9-ethyl-5-fluoro-9-hydroxy-10,13-dioxo-2,3,9,10,13,15-hexahydro-1H,12H-benzo[de]pyrano[3',4',6,7]indolizino[1,2-b]quinolin-1-yl)-3-hydroxybutanamide]: the IC50 with NCI-N87 turned out to be 14 nM; in the experiment on SK-BR-3, 20 nM; in the experiment on MDA-MB-468 it was 6.7 nM.

Turning to `C=Cc1c(F)cc2nc3c(c4c2c1CCC4NC(=O)C[C@@H](C)O)Cn1c-3cc2c(c1=O)COC(=O)[C@]2(O)CC` (stereo partly drawn) [7-1, (R)-N-((1S,9S)-9-ethyl-5-fluoro-9-hydroxy-10,13-dioxo-4-vinyl-2,3,9,10,13,15-hexahydro-1H,12H-benzo[de]pyrano[3',4',6,7]indolizino[1,2-b]quinolin-1-yl)-3-hydroxybutanamide], the IC50 with SK-BR-3 amounted to 8.6 nM; with MDA-MB-468, 3.1 nM.

As for `CC[C@@]1(O)C(=O)OCc2c1cc1n(c2=O)Cc2c-1nc1cc(F)c(OCC(F)(F)F)c3c1c2C(NC(=O)C[C@@H](C)O)CC3` (stereo partly drawn) [8-2, (R)-N-((1R,9S)-9-ethyl-5-fluoro-9-hydroxy-10,13-dioxo-4-(2,2,2-trifluoroethoxy)-2,3,9,10,13,15-hexahydro-1H,12H-benzo[de]pyrano[3',4',6,7]indolizino[1,2-b]quinolin-1-yl)-3-hydroxybutanamide], the figures for the IC50 with SK-BR-3 and in the experiment with MDA-MB-468 were 87 nM and 38 nM, respectively.

With `CC[C@@]1(O)C(=O)OCc2c1cc1n(c2=O)Cc2c-1nc1cc(F)c(C3CC3)c3c1c2C(NC(=O)[C@H]1C[C@@H](O)C1)CC3` (stereo partly drawn) [18-1, (1S,3S)-N-((1R,9S)-4-cyclopropyl-9-ethyl-5-fluoro-9-hydroxy-10,13-dioxo-2,3,9,10,13,15-hexahydro-1H,12H-benzo[d]pyrano[3',4':6,7]indolizino[1,2-b]quinolin-1-yl)-3-hydroxycyclobutane-1-carboxamide], it took 12 nM to reach half-maximal inhibition in the experiment with MDA-MB-468 (IC50).

The molecule `CC[C@@]1(O)C(=O)OCc2c1cc1n(c2=O)Cc2c-1nc1ccc(O)c3c1c2CCC3` [compound 9, (S)-9-ethyl-4,9-dihydroxy-1,2,3,9,12,15-hexahydro-10H,13H-benzopyrano[3',4',6,7]indolizino[1,2-b]quinoline-10,13-dione] showed an IC50 in the experiment on NCI-N87 (Homo sapiens, NCI-N87, 72 h) of 3 nM.

For “(R)-3-cyclopropyl-N-((1S,9S)-4-cyclopropyl-9-ethyl-5-fluoro-9-hydroxy-10,13-dioxo-2,3,9,10,13,15-hexahydro-1H,12H-benzo[d]pyrano[3',4':6,7]indolizino[1,2-b]quinolin-1-yl)-3-hydroxypropanamide [34-2]”, the IC50 stood at 6 nM in the experiment on NCI-N87 and 4 nM in the experiment on MDA-MB-468.

The values are drawn from patent EP4692091A1, “CA[…], AND PHARMACEUTICAL COMPOSITION, PREPARATION METHOD THEREFOR AND USE THEREOF” (Changchun Genescience Pharmaceutical Co., Ltd., priority 2023, dated 2024).
